# Source: publication PMC6273715, “Synthesis and Evaluation of New Benzodioxole- Based Thiosemicarbazone Derivatives as Potential Antitumor Agents” (Molecules, 2016)
# What was measured:
# [1] = system: ribonucleotide reductase; design: method as in PMID 21425997, PMID 22655252, PMID 22963201, PMID 19601577, PMID 26335599; details: both enzyme and cell assays; cited from earlier work
# [2] = system: A549 human lung adenocarcinoma cells; assay: MTT cytotoxicity assay, A549; format: cell-based; details: MTT, 24 h; read-out: IC50 A549 Cell Line
# Experimental: (§1) C6 Rat glioma and NIH/3T3 mouse embryonic fibroblast cells were incubated in Dulbecco’s Modified Eagle’s Medium (DMEM) (Sigma, Deisenhofen, Germany) supplemented with 10% fetal calf serum (Gibco, Paisley, UK). A549 Human lung adenocarcinoma cells were incubated in 90% RPMI supplemented with 10% fetal bovine serum (Gibco). […] Exponentially growing cells were plated at 2 × 10^4 cells/mL into 96-well microtiter tissue culture plates (Nunc, Roskilde, Denmark) and incubated for 24 h before the addition of the drugs (the optimum cell number for cytotoxicity assays was determined in preliminary experiments).
# (§2) The level of cellular 3-(4,5-dimethylthiazol-2-yl)-2,5-diphenyltetrazolium bromide (MTT) (Sigma) reduction was quantified as previously described in the literature with small modifications. […] At the end of this period, MTT was added to a final concentration of 0.5 mg/mL and the cells were incubated for 4 h at 37 °C. After the medium was removed, the formazan crystals formed by MTT metabolism were solubilized by addition of 200 µL DMSO to each well and absorbance was read at 540 nm with a microtiter plate spectrophotometer (Bio-Tek Plate Reader, Winooski, VT, USA). Every concentration was repeated in three wells.
# [3] = system: C6 rat glioma cells; assay: MTT cytotoxicity assay, C6; format: cell-based; details: MTT, 24 h; read-out: IC50 C6 Cell Line
# Experimental: as §1, §2
# [4] = system: A549 cells; assay: DNA synthesis inhibition (BrdU ELISA), A549; format: cell-based, human; details: A549, compound at its IC50, 24 h
# Experimental: (§3) The immunostaining procedure was carried out with specific anti-BrdU antibodies in the S-phase of the cell cycle. DNA synthesis inhibitory effects of all compounds were evaluated for 24 h. A549 and C6 cell lines were incubated with three different concentrations of the compounds that were determined according to their IC50 values. Cisplatin was used as a positive control.
# (§4) Analysis of DNA synthesis was measured by a Cell Proliferation ELISA, BrdU (colorimetric) kit (Roche, Mannheim, Germany). This immunostaining procedure is based on measuring the incorporation of bromodeoxyuridine (BrdU) into nuclear DNA in place of thymidine during the S-phase of the cell cycle using specific anti-BrdU antibodies. […] Firstly cells were seeded into 96 well flat-bottomed microtiter plates at a density of 2 × 10^3. […] Microtiter plates were incubated at 37 °C in a 5% CO2/95% air humidified atmosphere for 24 h. Cells were labeled with 10 µL BrdU solution for 2 h and then fixed. Anti-BrdU-POD (100 µL) was added and incubated for 90 min. Finally, wells were washed with BPS and cells were incubated with substrate. Absorbance of the samples was measured with an ELX808-IU Bio-Tek apparatus at 492 nm. All experiments were repeated two times. For each compound dose, dublicate wells were used.
# [5] = system: C6 cells; assay: DNA synthesis inhibition (BrdU ELISA), C6; format: cell-based, rat; details: C6, compound at its IC50, 24 h
# Experimental: as §3, §4
# [6] = system: A549 cells; assay: Annexin V-PI flow cytometry of apoptosis, A549; format: cell-based; details: IC50 dose, 24 h
# Experimental: (§5) Annexin V staining protocol was applied according to the manufacturer’s instructions (BD Pharmingen). The cells were then briefly washed with cold phosphate buffer saline (PBS) and suspended in a binding buffer at a concentration of 1 × 10^6 cells/mL. Then, 100 µL of this solution containing 1 × 10^5 cells was transferred to a 5 mL test tube. After 5 µL of Annexin-V and PI was added, the cells were incubated for 15 min at room temperature in the dark. Then 400 µL of 1x Binding Buffer was added to each tube and the cells were processed for data acquisition, and analyzed on a Becton–Dickinson FACS Aria using […] Version 6.1.1. Software (BD Biosciences, San Jose, CA, USA).
# [7] = system: C6 cells; assay: Annexin V-PI flow cytometry of apoptosis, C6; format: cell-based; details: IC50 dose, 24 h
# Experimental: as §5
# [8] = system: A549 cells; assay: Mitochondrial membrane potential (JC-1) flow cytometry, A549; format: cell-based, human; details: IC50 dose, 24 h
# Experimental: (§6) During apoptosis, several key events occur in mitochondria including the release of cytochrome c, changes in electron transport, and loss of mitochondrial transmembrane potential (ΔΨm). For this reason, ΔΨm is an important parameter of mitochondrial function in apoptosis.
# (§7) The cells were seeded in six-well plates at a density of 10^5 cells/mL, and the IC50 dose of compounds 2, 5 and 10 was added to cells. The cells were incubated in 5% CO2 air-conditioned atmosphere at 37 °C. […] 5,5′,6,6′-Tetrachloro-1,1′,3,3′-tetraethylbenzimidazolylcarbocyanine iodide (JC-1) dye solution (1× assay buffer + JC-1 stock solution) was added to the cells. The stock solution was prepared by dissolving DMSO. Then the samples were incubated at a temperature of 37 °C for 10–15 min. After incubation, the cells were washed twice with an assay buffer and analyzed by BD FACS Aria Cell Sorter Software version 6.1.1 flow cytometry (BD Biosciences). The cells showing mitochondrial membrane potential disruption were determined as a percentage of all cells.
# [9] = system: C6 cells; assay: Mitochondrial membrane potential (JC-1) flow cytometry, C6; format: cell-based, rat; details: IC50 dose, 24 h
# Experimental: as §6, §7
# [10] = system: SIRT1; assay: Sirtuin-1 detection by ELISA in C6 glioma cells; format: cell-based, rat; details: 24 h
Structure (SMILES),potency relative to hydroxyurea [1],IC50 [2],IC50 [3],DNA synthesis inhibition percent [4],DNA synthesis inhibition percent [5],Early and Late Apoptotic Cells % A549 Cells [6],Early and Late Apoptotic Cells % C6 Cells [7],"P2 (%) mitochondrial membrane polarized cells, A549 Cells [8]","P3 (%) mitochondrial membrane depolarized cells, A549 Cells [8]","P2 (%) mitochondrial membrane polarized cells, C6 Cells [9]","P3 (%) mitochondrial membrane depolarized cells, C6 Cells [9]",SIRT1 Concentration ([10]; IC50/2 concentration),SIRT1 Concentration ([10]; IC50 concentration)
"NC(=S)NN=Cc1ncccc1N [Triapine, 3-aminopyridine-2-carboxaldehyde thiosemicarbazone]",1000 times,–,–,–,–,–,–,–,–,–,–,–,–
"N.N.[Cl][Pt][Cl] [Cisplatin, reference compound]",–,3 ± 0.88 µM,6.83 ± 0.28 µM,55.73%,53.95%,32.4%,16.3%,41.4%,54.0%,46.6%,48.4%,4.53 ± 1.37 ng/mL,3.32 ± 1.41 ng/mL
